Results reported in patent publication US20150258101A1 (Proximagen Limited, priority 2014, published 2015).
Where a name gives a salt, the structure may show the parent alone.

Assays:
[1] = biological target: T1, purified recombinantly expressed human SSAO (Homo sapiens, UniProt Q16853); experiment: SSAO enzyme inhibition assay (benzylamine substrate; hydrogen peroxide/HRP-coupled or 14C aldehyde detection); assay type: biochemical; details: SSAO inhibitory activity, RT
T1 construct: made in house
T1 sequence (Q16853 1-763): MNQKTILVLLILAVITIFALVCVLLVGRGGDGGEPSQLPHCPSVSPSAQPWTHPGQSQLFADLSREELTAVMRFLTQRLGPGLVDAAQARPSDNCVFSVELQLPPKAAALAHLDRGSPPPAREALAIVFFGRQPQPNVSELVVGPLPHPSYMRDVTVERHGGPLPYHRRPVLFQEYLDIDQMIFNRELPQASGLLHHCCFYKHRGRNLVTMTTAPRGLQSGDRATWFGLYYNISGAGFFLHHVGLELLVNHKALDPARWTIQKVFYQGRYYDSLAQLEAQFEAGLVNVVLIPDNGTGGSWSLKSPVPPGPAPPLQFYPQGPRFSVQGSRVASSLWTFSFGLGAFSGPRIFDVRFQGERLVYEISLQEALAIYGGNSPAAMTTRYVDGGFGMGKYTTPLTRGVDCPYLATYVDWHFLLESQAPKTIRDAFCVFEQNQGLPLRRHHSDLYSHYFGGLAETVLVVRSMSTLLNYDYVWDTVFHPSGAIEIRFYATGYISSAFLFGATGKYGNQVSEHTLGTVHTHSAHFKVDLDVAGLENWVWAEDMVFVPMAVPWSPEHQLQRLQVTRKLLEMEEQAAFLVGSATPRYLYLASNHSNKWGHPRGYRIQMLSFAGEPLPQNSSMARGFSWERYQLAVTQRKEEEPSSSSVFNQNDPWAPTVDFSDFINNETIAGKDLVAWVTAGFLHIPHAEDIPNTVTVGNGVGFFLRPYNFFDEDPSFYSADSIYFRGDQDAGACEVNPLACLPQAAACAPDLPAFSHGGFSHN
Procedure, shortened: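 IC50 values came from a four-parameter logistic fit of % signal decrease versus DMSO control, with no-enzyme background subtracted. Two read-outs were used with human recombinant SSAO after ~15 min compound pre-incubation at RT. In the H2O2/HRP-Amplex read-out, enzyme was 1 ug/ml and benzylamine 100 uM (pH 7.4 phosphate), with resorufin fluorescence followed 1-2 h. In the 14C-benzaldehyde read-out (PBS), enzyme was 10 ug/ml and benzylamine 40 uM, run 1 h then acid-stopped.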

[2] = biological target: T2, human ether a go-go related gene (hERG) K+ channel (Homo sapiens, UniProt Q12809); experiment: hERG assay, IonWorks patch clamp electrophysiology; assay type: cell-based; details: Chinese Hamster Lung cell line stably expressing hERG; max assay concentration 11 uM
T2 construct: a Chinese Hamster Lung cell line stably expressing the full length hERG channel; expressed in transfected cells; host or cells: Chinese Hamster Lung cell line
T2 sequence (Q12809 whole entry): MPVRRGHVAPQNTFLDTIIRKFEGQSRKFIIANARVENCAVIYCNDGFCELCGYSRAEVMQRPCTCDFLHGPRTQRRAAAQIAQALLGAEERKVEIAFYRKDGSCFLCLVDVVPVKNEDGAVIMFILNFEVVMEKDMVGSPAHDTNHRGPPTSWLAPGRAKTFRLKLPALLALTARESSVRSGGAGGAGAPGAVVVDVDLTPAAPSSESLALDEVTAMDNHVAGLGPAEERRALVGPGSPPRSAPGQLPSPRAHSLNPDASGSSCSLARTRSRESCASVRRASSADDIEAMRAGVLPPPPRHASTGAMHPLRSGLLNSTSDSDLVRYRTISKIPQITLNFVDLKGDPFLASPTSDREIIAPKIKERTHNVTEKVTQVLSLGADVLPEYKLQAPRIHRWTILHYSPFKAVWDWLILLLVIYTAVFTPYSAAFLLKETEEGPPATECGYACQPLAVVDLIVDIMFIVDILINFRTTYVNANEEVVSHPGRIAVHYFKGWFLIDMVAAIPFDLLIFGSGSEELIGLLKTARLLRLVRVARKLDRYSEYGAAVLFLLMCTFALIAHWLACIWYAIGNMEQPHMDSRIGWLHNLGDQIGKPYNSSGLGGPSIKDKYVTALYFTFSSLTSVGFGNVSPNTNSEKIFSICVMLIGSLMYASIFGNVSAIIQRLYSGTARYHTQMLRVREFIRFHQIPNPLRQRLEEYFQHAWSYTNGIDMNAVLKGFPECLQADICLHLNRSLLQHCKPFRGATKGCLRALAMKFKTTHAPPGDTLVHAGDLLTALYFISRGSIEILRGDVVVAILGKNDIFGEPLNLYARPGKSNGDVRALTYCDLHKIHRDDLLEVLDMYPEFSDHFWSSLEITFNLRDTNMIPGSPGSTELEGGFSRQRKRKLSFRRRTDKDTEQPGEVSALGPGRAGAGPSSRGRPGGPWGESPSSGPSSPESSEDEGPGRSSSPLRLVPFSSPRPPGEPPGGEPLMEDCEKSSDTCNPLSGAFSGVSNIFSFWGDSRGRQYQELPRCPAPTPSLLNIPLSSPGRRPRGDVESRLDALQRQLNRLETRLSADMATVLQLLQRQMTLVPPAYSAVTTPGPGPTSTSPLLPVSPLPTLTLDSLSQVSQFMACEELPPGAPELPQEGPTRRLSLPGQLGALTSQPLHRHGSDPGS
Experimental: Compounds of the invention were tested for inhibition of the human ether a go-go related gene (hERG) K^+ channel using IonWorks patch clamp electrophysiology. 8 Point concentration-response curves were generated on two occasions using 3-fold serial dilutions from the maximum assay concentration (11 uM). Electrophysiological recordings were made from a Chinese Hamster Lung cell line stably expressing the full length hERG channel. Single cell ion currents were measured in the perforated patch clamp configuration (100 ug/mL amphoterocin) at room temperature using an IonWorks Quattro instrument. The internal solution contained 140 mM KCl, 1 mM MgCl2, 1 mM EGTA and 20 mM HEPES and was buffered to pH 7.3. The external solution contained 138 mM NaCl, 2.7 mM KCl, 0.9 mM CaCl2, 0.5 mM MgCl2, 8 mM Na2HPO4 and 1.5 mM KH2PO4, and was buffered to pH 7.3. […] This sequence was repeated 5 times at a frequency of 0.25 Hz. Currents were measured from the tail step at the 5th pulse, and referenced to the holding current. Compounds were incubated for 6-7 min prior to a second measurement of the hERG signal using an identical pulse train. […] A control compound (quinidine) was used (see Table 20 below).

Structure (SMILES)	IC50 [1] [nM]	IC50 [2] [µM]
Fc1cnccc1-c1cc2ccncc2n1-c1ccc(Cl)cc1 [Example 152, 4-[1-(4-Chlorophenyl)-1H-pyrrolo[2,3-c]pyridin-2-yl]-3-fluoropyridine]	200 to 1200	1 to 10
Clc1ccc(-n2c(-c3ccc(N4CCOCC4)nn3)nc3ccncc32)cc1 [Example 4, 4-{6-[3-(4-Chlorophenyl)-3H-imidazo[4,5-c]pyridin-2-yl]pyridazin-3-yl}morpholine]	< 50	1 to 10
Clc1ccc(-n2c(-c3cnc(N4CCNCC4)o3)nc3ccncc32)cc1 [Example 18, 1-{5-[3-(4-Chlorophenyl)-3H-imidazo[4,5-c]pyridin-2-yl]-1,3-oxazol-2-yl}piperazine dihydrochloride]	50 to 200	> 10
CS(=O)(=O)N1CCN(c2ccc(-c3nc4ccncc4n3-c3ccc(F)cc3)cn2)CC1 [Example 89, 1-{5-[3-(4-Fluorophenyl)-3H-imidazo[4,5-c]pyridin-2-yl]pyridin-2-yl}-4-methanesulfonylpiperazine]	< 50	> 10
O=C1CN(c2ncc(-c3cc4ccncc4n3-c3ccc(Cl)cc3)cn2)CCN1 [Example 128, 4-{5-[1-(4-Chlorophenyl)-1H-pyrrolo[2,3-c]pyridin-2-yl]pyrimidin-2-yl}piperazin-2-one]	< 50	> 10
CS(=O)(=O)NC1CCN(c2ccc(-c3nc4ccncc4n3-c3ccc(Cl)cc3)cn2)CC1 [Example 88, N-(1-{5-[3-(4-Chlorophenyl)-3H-imidazo[4,5-c]pyridin-2-yl]pyridin-2-yl}piperidin-4-yl)methanesulfonamide]	< 50	1 to 10
Cc1ccc(-n2c(-c3ccc(N4CCOCC4)nc3)nc3ccncc32)cn1 [Example 64, 4-{5-[3-(6-Methylpyridin-3-yl)-3H-imidazo[4,5-c]pyridin-2-yl]pyridin-2-yl}morpholine]	200 to 1200	> 10
Cc1ccc(-n2c(-c3ccc(N4CCOCC4)nc3)nc3ccncc32)cc1 [Example 63, 4-{5-[3-(4-Methylphenyl)-3H-imidazo[4,5-c]pyridin-2-yl]pyridin-2-yl}morpholine]	200 to 1200	> 10
Clc1ccc(-n2c(-c3cnc(N4CCOCC4)nc3)nc3ccncc32)nc1 [Example 75, 4-{5-[3-(5-Chloropyridin-2-yl)-3H-imidazo[4,5-c]pyridin-2-yl]pyrimidin-2-yl}morpholine; tris(trifluoroacetic acid)]	< 50	> 10
Clc1ccc(-n2c(-c3cnc(N4CCOCC4)nc3)cc3ccncc32)cc1 [Example 127, 4-{5-[1-(4-Chlorophenyl)-1H-pyrrolo[2,3-c]pyridin-2-yl]pyrimidin-2-yl}morpholine]	< 50	0.1 to 1
CC1CN(c2ccc(-c3nc4ccncc4n3-c3ccc(F)cc3)cn2)CCO1 (stereo not drawn) [Example 70, 4-{5-[3-(4-Fluorophenyl)-3H-imidazo[4,5-c]pyridin-2-yl]pyridin-2-yl}-2-methylmorpholine]	< 50	> 10
O=c1cc(-c2cc3ccncc3n2-c2ccc(Cl)cc2)ccn1C1CC1 [Example 138, 4-[1-(4-Chlorophenyl)-1H-pyrrolo[2,3-c]pyridin-2-yl]-1-cyclopropyl-1,2-dihydropyridin-2-one]	< 50	1 to 10
Clc1ccc(-n2c(-c3ccc(N4CCOCC4)nc3)nc3ccncc32)cc1 [Example 47, 4-{5-[3-(4-Chlorophenyl)-3H-imidazo[4,5-c]pyridin-2-yl]pyridin-2-yl}morpholine]	< 50	1 to 10
Clc1ccc(-n2c(-c3ccc(CN4CCOCC4)nc3)nc3ccncc32)cc1 [Example 3, 4-({5-[3-(4-Chlorophenyl)-3H-imidazo[4,5-c]pyridin-2-yl]pyridin-2-yl}methyl) morpholine]	50 to 200	> 10
Clc1ccc(-n2c(-c3cnc(NC4CCOCC4)nc3)cc3ccncc32)cc1 [Example 139, 5-[1-(4-Chlorophenyl)-1H-pyrrolo[2,3-c]pyridin-2-yl]-N-(oxan-4-yl)pyrimidin-2-amine]	< 50	0.1 to 1
Clc1ccc(-n2c(-c3cccnc3)cc3ccncc32)cc1 [Example 122, 3-[1-(4-Chlorophenyl)-1H-pyrrolo[2,3-c]pyridin-2-yl]pyridine]	50 to 200	1 to 10

Second part, led by results:

IC50 [1] [nM]	Structure (SMILES)	IC50 [2] [µM]
< 50	NC(=O)N1CCN(c2ccc(-c3nc4ccncc4n3-c3ccc(F)cc3)cn2)CC1 [Example 92, 4-{5-[3-(4-Fluorophenyl)-3H-imidazo[4,5-c]pyridin-2-yl]pyridin-2-yl}piperazine-1-carboxamide]	> 10
50 to 200	Fc1ccc(-n2c(-c3cnc(N4CCOCC4)c(F)c3)nc3ccncc32)cc1 [Example 98, 4-{3-Fluoro-5-[3-(4-fluorophenyl)-3H-imidazo[4,5-c]pyridin-2-yl]pyridin-2-yl]morpholine]	> 10
50 to 200	Fc1ccc(-n2c(-c3cnc(NC4CCOCC4)nc3)nc3ccncc32)cc1 [Example 20, 5-[3-(4-Fluorophenyl)-3H-imidazo[4,5-c]pyridin-2-yl]-N-(oxan-4-yl)pyrimidin-2-amine]	> 10
50 to 200	Cc1ccc(-n2c(-c3cnc(N4CCOCC4)nc3)nc3ccncc32)cc1 [Example 57, 4-{5-[3-(4-Methylphenyl)-3H-imidazo[4,5-c]pyridin-2-yl]pyrimidin-2-yl}morpholine]	> 10
< 50	CC(=O)N1CCN(c2ccc(-c3nc4ccncc4n3-c3ccc(F)cc3)cn2)CC1 [Example 86, 1-(4-{5-[3-(4-Fluorophenyl)-3H-imidazo[4,5-c]pyridin-2-yl]pyridin-2-yl}piperazin-1-yl)ethan-1-one]	> 10
< 50	Fc1ccc(-n2c(-c3cnc(N4CCOCC4)nc3)nc3ccncc32)cc1 [Example 52, 4-{5-[3-(4-Fluorophenyl)-3H-imidazo[4,5-c]pyridin-2-yl]pyrimidin-2-yl}morpholine]	> 10
50 to 200	O=C1CN(c2ncc(-c3nc4ccncc4n3-c3ccc(F)cc3)cn2)CCN1 [Example 12, 4-{5-[3-(4-Fluorophenyl)-3H-imidazo[4,5-c]pyridin-2-yl]pyrimidin-2-yl}piperazin-2-one]	> 10
< 50	Fc1ccc(-n2c(-c3cnc(N4CCCC4)nc3)nc3ccncc32)cc1 [Example 69, 5-[3-(4-Fluorophenyl)-3H-imidazo[4,5-c]pyridin-2-yl]-2-(pyrrolidin-1-yl)pyrimidine]	> 10
